# Measured values from US10906894B2, “Compounds containing benzo[d][1,3]oxathiole, benzo[d][1,3]oxathiole 3-oxide or benzo[d][1,3]oxathiole 3,3-dioxide and methods/uses thereof as agonists of g protein-coupled receptor 119” (PRAMANA PHARMACEUTICALS INC., priority 2016, dated 2021).
# Key:
# [1] = molecular target: T1, GPR119 (Homo sapiens, UniProt Q8TDV5); assay: LANCE Ultra cAMP assay: stimulation of GPR119-mediated cAMP production in CHO cells stably expressing human GPR119 receptor; format: cell-based; settings: for Emax: CHO, read-out: % cAMP Max.
# T1 sequence (Q8TDV5 1-335): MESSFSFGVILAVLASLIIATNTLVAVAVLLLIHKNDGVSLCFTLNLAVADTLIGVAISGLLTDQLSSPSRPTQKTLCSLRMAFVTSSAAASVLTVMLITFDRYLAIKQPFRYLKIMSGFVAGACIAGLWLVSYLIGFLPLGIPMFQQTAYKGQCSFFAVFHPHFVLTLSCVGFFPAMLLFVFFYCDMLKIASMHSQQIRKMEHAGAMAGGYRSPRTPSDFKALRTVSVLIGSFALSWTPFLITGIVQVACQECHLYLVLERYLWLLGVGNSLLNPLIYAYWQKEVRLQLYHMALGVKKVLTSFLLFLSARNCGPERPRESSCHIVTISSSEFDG
# Method: The potency of GPR119 receptor agonists was assessed by measuring the stimulation of GPR119-mediated cAMP production with LANCE Ultra cAMP assay (Perkin Elmer, TRF0264) in CHO cells stably expressing human GPR119 receptor (Chantest, cat. #A633). CHO-GPR119 cells were cultured in DMEM/F12 medium supplemented with 10% FBS and 1% NEAA at 37° C., 5% CO2, aliquoted and frozen in liquid nitrogen.
# (§1) For assay, cells were thawed in a water bath at 37° C., washed in Hank's Balanced Salt Solution (HBSS) and resuspended in Stimulation Buffer 1 (SB1) for 30 min: 5 mM HEPES, pH 7.2-7.4, 0.1% BSA in HBSS. […] The ULight-anti-cAMP antibody (Perkin Elmer, TRF0264) was added to the cell suspension making Mix [Cell suspension/4× ULight-anti-cAMP antibodies]. […] The assay plate was centrifuged 200 g, 5 sec.
# Serial dilution (100×) of tested compounds were prepared in DMSO in the range of from 30 nM to 1 mM with half-log step in 384-well plates (Greiner, 781280) using Biomek 2000. 10 test concentrations in two repeats were prepared for each CRC. […] The assay plate was incubated 30 minutes at room temperature on a shaker, 250 rpm to allow GPR119 receptor stimulation. The cAMP level was determined according to the standard kit supplier protocol (PerkinElmer, cat. #TRF0264).
# (§2) The stock solution of the Eu-cAMP tracer (Perkin Elmer, TRF0264) was diluted 1:100 in cAMP Detection Buffer (Perkin Elmer, TRF0264), making 2× working concentration and added to the assay plate, 10 μL per well. Assay plate was centrifuged 180 g, 1 sec. Then the assay plate was incubated for 60′ at room temperature on shaker, 250 rpm to allow cAMP detection. The TR-FRET signal was measured at Ex-340 nm/Em-615 and Ex-340 nm/Em-665 nm on the reader Tecan M1000. 0% of cAMP stimulation corresponds to the cells with DMSO only, 100% of cAMP stimulation corresponds to the cells with 10 uM Forskolin. The EC50 value defined as the concentration of the drug that gives half-maximal response, were calculated using GraphPad Prizm 5.0 software with forskolin was used as references at each test. Entries 1-17 in Table A-2 show the biological activity of certain representative compounds using the protocol as described above.
# as §1, with “cell suspension,” for “cell suspension”
# as §2, with “1-14” for “1-17”, “B-2” for “A-2”
# [2] = molecular target: T1, GPR119; assay: PathHunter β-arrestin assay (enzyme fragment complementation, β-galactosidase reporter) monitoring activation of GPR119; format: cell-based; parameters: β-galactosidase enzyme fragment for EFC (by own knowledge the ProLink tag, fused to the receptor's C-terminus in PathHunter lines); settings: for EC50: Table B-3; for Emax: Table B-3, read-out: % cAMP Max.
# Method: Certain test compounds were evaluated using the PathHunterR β-arrestin assay, which monitors the activation of GPR119 in a homogenous, non-imaging assay format using the enzyme fragment complementation (EFC) technology (DiscoverX Corporation, Fremont, Calif. U.S.A.; www.discoverx.com) with β-galactosidase as the functional reporter.
# [3] = Table B-2 entries 15-39, modified protocol, 500 cells/well
# [4] = reference ligands in modified protocol, 500 cells/well
Structure (SMILES),"EC50 ([1]; Table B-2 entries 1-14, protocol as described (800 000 cells/mL, 5 uL/well), CHO-GPR119 cells) [nM]",EC50 [2] [nM],Emax [2] [%],"Emax [1, 3] [%]","EC50 [1, 3] [nM]","EC50 [1, 4] [nM]","maximum cAMP stimulation [1, 4] [%]"
"[O-][S@@+]1COc2cc(-c3ccc(OCC4CCN(c5ncc(Cl)cn5)CC4)c(F)c3)ccc21 [Example B-34, (R)-6-(4-((1-(5-chloropyrimidin-2-yl)piperidin-4-yl)methoxy)-3-fluorophenyl)-2H-benzo[d][1,3]oxathiole-3-oxide]",0.9,35.7,172,,,,
"CC(C)c1cnc(N2CCC(COc3ccc(-c4ccc5c(c4)OC[S@@+]5[O-])cc3F)CC2)nc1 [Example B-46, (S)-6-(3-fluoro-4-((1-(5-isopropylpyrimidin-2-yl)piperidin-4-yl)methoxy)phenyl)-2H-benzo[d][1,3]oxathiole 3-oxide]",,7.9,164,82,10.1,,
"COc1cnc(N2CCC(COc3ccc(-c4ccc5c(c4)OC[S@@+]5[O-])cc3F)CC2)nc1 [Example B-50, (S)-6-(3-Fluoro-4-((1-(5-methoxypyrimidin-2-yl)piperidin-4-yl)methoxy)phenyl)-2H-benzo[d][1,3]oxathiole 3-oxide]",,16.4,169,66,3.7,,
"COc1cnc(N2CCC(COc3ccc(-c4ccc5c(c4)OC[S@+]5[O-])cc3F)CC2)nc1 [Example B-51, (R)-6-(3-Fluoro-4-((1-(5-methoxypyrimidin-2-yl)piperidin-4-yl)methoxy)phenyl)-2H-benzo[d][1,3]oxathiole 3-oxide]",,,,70,40.6,,
CCc1cnc(N2CCC(COc3ccc(-c4ccc5c(c4)OC[S@+]5[O-])cc3F)CC2)nc1 [Example B-52],,,,73,19.5,,
"CC(C)c1cnc(N2CCC(COc3ccc(-c4ccc5c(c4)OC[S@+]5[O-])cc3F)CC2)nc1 [Example B-53, (R)-6-(3-fluoro-4-((1-(5-isopropylpyrimidin-2-yl)piperidin-4-yl)methoxy)phenyl)-2H-benzo[d][1,3]oxathiole 3-oxide]",,,,74,41,,
"[O-][S@+]1COc2cc(-c3ccc(OCC4CCN(c5ncc(Cl)cn5)CC4)c(F)c3)ccc21 [Example B-59, (S)-6-(4-((1-(5-Chloropyrimidin-2-yl)piperidin-4-yl)methoxy)-3-fluorophenyl)-2H-benzo[d][1,3]oxathiole 3-oxide]",,6.7,175,70,1.7,,
"[O-][S@+]1COc2cc(-c3cnc(OCC4CCN(c5ncc(Cl)cn5)CC4)nc3)ccc21 [Example B-62, (S)-6-(2-((1-(5-Chloropyrimidin-2-yl)piperidin-4-yl)methoxy)pyrimidin-5-yl)-2H-benzo[d][1,3]oxathiole 3-oxide]",,,,66,43.5,,
"CCc1cnc(N2CC[C@@H](COc3ccc(-c4ccc5c(c4)OC[S+]5[O-])cc3F)C2)nc1 (stereo partly drawn) [Example B-67, 6-(4-(((R)-1-(5-Ethylpyrimidin-2-yl)pyrrolidin-3-yl)methoxy)-3-fluorophenyl)-2H-benzo[d][1,3]oxathiole 3-oxide]",,,,74,54,,
CCc1cnc(N2CC[C@@H](COc3ccc(-c4ccc5c(c4)OCS5)cc3F)C2)nc1 [Example B-69],,,,,> 10000,,
"CCc1cnc(N2CC[C@H](COc3ccc(-c4ccc5c(c4)OC[S@@+]5[O-])cc3F)C2)nc1 [Example B-75, (S)-6-(4-(((S)-1-(5-Ethylpyrimidin-2-yl)pyrrolidin-3-yl)methoxy)-3-fluorophenyl)-2H-benzo[d][1,3]oxathiole 3-oxide]",,60,190,88,17.7,,
CCc1cnc(N2CC[C@H](COc3ccc(-c4ccc5c(c4)OC[S@+]5[O-])cc3F)C2)nc1 [Example B-76],,,,80,20.5,,
CCc1cnc(N2CC[C@@H](COc3ccc(-c4ccc5c(c4)OC[S@@+]5[O-])cc3F)C2)nc1 [Example B-77],,,,81,32.5,,
CCc1cnc(N2CC[C@@H](COc3ccc(-c4ccc5c(c4)OC[S@+]5[O-])cc3F)C2)nc1 [Example B-78],,,,72,115,,
"[O-][S@+]1COc2cc(-c3ccc(OC[C@H]4CCN(c5ncc(Cl)cn5)C4)c(F)c3)ccc21 [Example B-81, (S)-6-(4-(((S)-1-(5-Chloropyrimidin-2-yl)pyrrolidin-3-yl)methoxy)-3-fluorophenyl)-2H-benzo[d][1,3]oxathiole 3-oxide]",,,,95,30,,
"CCc1ccnc(N2CC[C@H](COc3ccc(-c4ccc5c(c4)OC[S@@+]5[O-])cc3F)C2)n1 [Example B-84, (S)-6-(4-(((S)-1-(4-Ethylpyrimidin-2-yl)pyrrolidine-3-yl)methoxy)-3-fluorophenyl)-2H-benzo[d][1,3]oxathiole 3-oxide]",,567,117,92,31.5,,
"CCc1ccnc(N2CC[C@H](COc3ccc(-c4ccc5c(c4)OC[S@+]5[O-])cc3F)C2)n1 [Example B-85, (R)-6-(4-(((S)-1-(4-Ethylpyrimidin-2-yl)pyrrolidine-3-yl)methoxy)-3-fluorophenyl)-2H-benzo[d][1,3]oxathiole 3-oxide]",,657,73,64,13,,
"[O-][S@@+]1COc2cc(-c3ccc(OC[C@H]4CCN(c5ncc(Cl)cn5)C4)c(F)c3)ccc21 [Example B-86, (R)-6-(4-(((S)-1-(5-Chloropyrimidin-2-yl)pyrrolidine-3-yl)methoxy)-3-fluorophenyl)-2H-benzo[d][1,3]oxathiole 3-oxide]",,108,133,93,4.6,,
"CCc1cnc(N2CC[C@H](COc3ccc(-c4ccc5c(c4)OC[S@@+]5[O-])cc3)C2)nc1 [Example B-91, (S)-6-(4-(((S)-1-(5-Ethylpyrimidin-2-yl)pyrrolidine-3-yl)methoxy)phenyl)-2H-benzo[d][1,3]oxathiole 3-oxide]",,222,155,93,10.3,,
"C=C[C@@]1(C)CC(=O)[C@]2(O)[C@@]3(C)[C@@H](O)CCC(C)(C)[C@@H]3[C@H](O)[C@H](OC(C)=O)[C@@]2(C)O1 [Forscolin, Forskolin, reference compound]",,,,,,28.5,124
"CCCCCCCC/C=C\CCCCCCCC(=O)NCCO [oleoyl ethanolamide, reference compound]",,,,,,592,100
